System: Formosan subterranean termites
Experiment: Petri dish treated/untreated sand bioassay for repelling activity against termites
Format: in vivo, Coptotermes formosanus
Set-up: key to percent of termites on untreated sand vs expected value of 50% (Chi-Square, p≦0.05): “−” indicates the test was not significantly different from the expected value; “+” indicates the test was significantly different from the expected value
Procedure: A carton nest (colony A) of Formosan subterranean termites was collected in Algiers, Louisiana in November 1997, and held in 250-liter cans. The cans were filled with pine as a food source, and kept at a temperature range of 24-26° C. Moistened corrugated cardboard rolls were used to retrieve termites from the cans. Once the termites migrated to the cardboard rolls, they were gently knocked from the cardboard rolls into clean rectangular plastic trays (40 cm×50 cm). Retrieved termites were isolated from debris by allowing them to cling to sheets of moistened paper towels. The average weight of each termite was 1.21 mg.
To test for effectiveness of nootkatone, 1,10-dihydronootkatone and tetrahydronootkatone in repelling termites, a bioassay was conducted using Petri dishes (5 cm diameter and 1 cm height). To ensure adequate moisture for the termites, 1 ml of a hot agar solution (1.5% in H2O) was spread on the bottom of the Petri dish. After the agar cooled, sand that was treated as described below was spread on the bottom of the Petri dish. For the treated sand, purified 1,10-dihydronootkatone or tetrahydronootkatone were dissolved in 2 ml ethanol, and then diluted to achieve final concentrations of 1, 2, 5, 12.5, 25, 50, and 100 μg/g sand. The solution was mixed with 1 g sand that had been autoclaved and cooled. The control sand was autoclaved sand with only 200 μl ethanol added. One half of the surfaces in the Petri dishes were covered with 1 g treated sand, and the other half with 1 g untreated sand.
The prepared Petri dishes were then used to evaluate the repelling activity against Formosan subterranean termites. Ten worker termites were added to each Petri dish, and the dishes were covered to eliminate light. Five replicate dishes were tested for each concentration and for the control. Termite position was recorded every 15 min during the first hour of testing by counting the number of termites observed on untreated sand. After the first hour, termite position was recorded each hour for 3 hr.
Differences between the percent of termites on untreated sand and an expected value were statistically analyzed by a Chi-Square analysis, using an expected value of 50% and a significance level of p≦0.05.

C=C(C)C1CCC2CC(=O)CC(C)C2(C)C1 (centres unmarked) [Dihydronootkatone, 1,4,4a,5,6,7,8,10-octahydro-6-isopropenyl-4,4a-dimethyl-2(1H)-naphthalenone]
percent of termites on untreated sand vs expected value of 50% (Chi-Square, p≦0.05) (2 μg/dish, 0.25 hour): −
percent of termites on untreated sand vs expected value of 50% (Chi-Square, p≦0.05) (2 μg/dish, 0.5 hour): −
percent of termites on untreated sand vs expected value of 50% (Chi-Square, p≦0.05) (2 μg/dish, 0.75 hour): −
percent of termites on untreated sand vs expected value of 50% (Chi-Square, p≦0.05) (2 μg/dish, 1 hour): −
percent of termites on untreated sand vs expected value of 50% (Chi-Square, p≦0.05) (2 μg/dish, 2 hour): −
percent of termites on untreated sand vs expected value of 50% (Chi-Square, p≦0.05) (2 μg/dish, 3 hour): −
percent of termites on untreated sand vs expected value of 50% (Chi-Square, p≦0.05) (5 μg/dish, 0.25 hour): −
percent of termites on untreated sand vs expected value of 50% (Chi-Square, p≦0.05) (5 μg/dish, 0.5 hour): −
percent of termites on untreated sand vs expected value of 50% (Chi-Square, p≦0.05) (5 μg/dish, 0.75 hour): −
percent of termites on untreated sand vs expected value of 50% (Chi-Square, p≦0.05) (5 μg/dish, 1 hour): −
percent of termites on untreated sand vs expected value of 50% (Chi-Square, p≦0.05) (5 μg/dish, 2 hour): −
percent of termites on untreated sand vs expected value of 50% (Chi-Square, p≦0.05) (5 μg/dish, 3 hour): −
percent of termites on untreated sand vs expected value of 50% (Chi-Square, p≦0.05) (12.5 μg/dish, 0.25 hour): +
percent of termites on untreated sand vs expected value of 50% (Chi-Square, p≦0.05) (12.5 μg/dish, 0.5 hour): +
percent of termites on untreated sand vs expected value of 50% (Chi-Square, p≦0.05) (12.5 μg/dish, 0.75 hour): +
percent of termites on untreated sand vs expected value of 50% (Chi-Square, p≦0.05) (12.5 μg/dish, 1 hour): +
percent of termites on untreated sand vs expected value of 50% (Chi-Square, p≦0.05) (12.5 μg/dish, 2 hour): +
percent of termites on untreated sand vs expected value of 50% (Chi-Square, p≦0.05) (12.5 μg/dish, 3 hour): +
percent of termites on untreated sand vs expected value of 50% (Chi-Square, p≦0.05) (25 μg/dish, 0.25 hour): −
percent of termites on untreated sand vs expected value of 50% (Chi-Square, p≦0.05) (25 μg/dish, 0.5 hour): +
percent of termites on untreated sand vs expected value of 50% (Chi-Square, p≦0.05) (25 μg/dish, 0.75 hour): +
percent of termites on untreated sand vs expected value of 50% (Chi-Square, p≦0.05) (25 μg/dish, 1 hour): +
percent of termites on untreated sand vs expected value of 50% (Chi-Square, p≦0.05) (25 μg/dish, 2 hour): +
percent of termites on untreated sand vs expected value of 50% (Chi-Square, p≦0.05) (25 μg/dish, 3 hour): +
percent of termites on untreated sand vs expected value of 50% (Chi-Square, p≦0.05) (50 μg/dish, 0.25 hour): +
percent of termites on untreated sand vs expected value of 50% (Chi-Square, p≦0.05) (50 μg/dish, 0.5 hour): +
percent of termites on untreated sand vs expected value of 50% (Chi-Square, p≦0.05) (50 μg/dish, 0.75 hour): +
percent of termites on untreated sand vs expected value of 50% (Chi-Square, p≦0.05) (50 μg/dish, 1 hour): +
percent of termites on untreated sand vs expected value of 50% (Chi-Square, p≦0.05) (50 μg/dish, 2 hour): +
percent of termites on untreated sand vs expected value of 50% (Chi-Square, p≦0.05) (50 μg/dish, 3 hour): +
percent of termites on untreated sand vs expected value of 50% (Chi-Square, p≦0.05) (100 μg/dish, 0.25 hour): +
percent of termites on untreated sand vs expected value of 50% (Chi-Square, p≦0.05) (100 μg/dish, 0.5 hour): +
percent of termites on untreated sand vs expected value of 50% (Chi-Square, p≦0.05) (100 μg/dish, 0.75 hour): +
percent of termites on untreated sand vs expected value of 50% (Chi-Square, p≦0.05) (100 μg/dish, 1 hour): +
percent of termites on untreated sand vs expected value of 50% (Chi-Square, p≦0.05) (100 μg/dish, 2 hour): +
percent of termites on untreated sand vs expected value of 50% (Chi-Square, p≦0.05) (100 μg/dish, 3 hour): +
factor by which the effective termite-repellent concentration is lower than that of nootkatone (relative to nootkatone): 8
concentration effective as termite repellent (time periods up to 3 hr): 12.5 µg

From patent US6897244B2, “Dihydronootkatone and tetrahydronootkatone as repellents to arthropods” (Board of Supervisors of Louisiana State University and …, priority 2002, dated 2005)
